DC50 and Dmax data for nine compounds are collected here from patent publication US12539292B2, “BRM targeting compounds and associated methods of use” (Arvinas Operations, Inc., priority 2018, dated 2026).

Like-named read-outs stand apart in the source and are kept apart here. Bounds are passed on as bounds.

The target of this experiment is T1, BRM (Homo sapiens, UniProt P51531).
T1 construct: In-Cell Western Screen of BRM Degradation in SW1573 Cells; endogenous in cells; host or cells: SW1573
T1 sequence (P51531 whole entry): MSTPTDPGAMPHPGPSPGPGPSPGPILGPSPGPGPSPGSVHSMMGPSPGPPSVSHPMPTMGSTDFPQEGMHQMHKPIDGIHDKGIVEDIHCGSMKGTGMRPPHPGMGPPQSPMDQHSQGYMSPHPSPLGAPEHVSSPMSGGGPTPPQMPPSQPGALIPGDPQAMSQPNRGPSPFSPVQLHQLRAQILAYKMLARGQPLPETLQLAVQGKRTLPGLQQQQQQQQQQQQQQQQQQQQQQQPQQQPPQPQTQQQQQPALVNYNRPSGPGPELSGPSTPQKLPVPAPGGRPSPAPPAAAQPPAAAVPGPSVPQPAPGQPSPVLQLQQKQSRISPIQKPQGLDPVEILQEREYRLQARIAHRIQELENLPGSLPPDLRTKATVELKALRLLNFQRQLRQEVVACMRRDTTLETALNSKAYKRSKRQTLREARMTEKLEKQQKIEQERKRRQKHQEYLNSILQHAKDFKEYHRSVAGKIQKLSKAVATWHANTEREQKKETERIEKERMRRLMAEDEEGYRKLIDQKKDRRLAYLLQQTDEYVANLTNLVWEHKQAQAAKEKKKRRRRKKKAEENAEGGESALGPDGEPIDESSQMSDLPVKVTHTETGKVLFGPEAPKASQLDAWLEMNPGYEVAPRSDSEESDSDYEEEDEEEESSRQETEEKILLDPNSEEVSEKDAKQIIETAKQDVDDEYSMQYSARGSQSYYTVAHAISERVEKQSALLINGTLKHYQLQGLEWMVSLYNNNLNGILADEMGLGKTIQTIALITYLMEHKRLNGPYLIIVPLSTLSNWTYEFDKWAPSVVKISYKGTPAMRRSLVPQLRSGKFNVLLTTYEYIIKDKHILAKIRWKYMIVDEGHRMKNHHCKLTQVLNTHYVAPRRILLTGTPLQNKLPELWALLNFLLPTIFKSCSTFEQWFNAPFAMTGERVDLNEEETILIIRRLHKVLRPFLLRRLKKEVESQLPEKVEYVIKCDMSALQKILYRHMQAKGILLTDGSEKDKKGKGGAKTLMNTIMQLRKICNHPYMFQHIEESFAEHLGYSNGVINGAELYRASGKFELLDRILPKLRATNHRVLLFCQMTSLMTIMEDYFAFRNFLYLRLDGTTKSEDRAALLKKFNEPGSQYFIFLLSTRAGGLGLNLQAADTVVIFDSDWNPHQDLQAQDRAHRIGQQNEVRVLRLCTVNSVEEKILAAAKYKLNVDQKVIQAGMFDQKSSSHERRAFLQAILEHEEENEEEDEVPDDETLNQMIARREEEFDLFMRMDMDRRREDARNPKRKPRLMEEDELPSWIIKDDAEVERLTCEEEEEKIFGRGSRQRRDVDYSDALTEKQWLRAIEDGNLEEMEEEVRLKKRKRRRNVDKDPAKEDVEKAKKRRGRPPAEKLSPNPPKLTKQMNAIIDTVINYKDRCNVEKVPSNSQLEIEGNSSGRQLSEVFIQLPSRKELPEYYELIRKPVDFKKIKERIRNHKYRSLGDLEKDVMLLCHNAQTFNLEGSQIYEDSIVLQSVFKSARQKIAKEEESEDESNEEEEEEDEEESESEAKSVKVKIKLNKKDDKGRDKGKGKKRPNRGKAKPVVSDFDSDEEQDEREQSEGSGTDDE
Briefly: In-cell Western screen of BRM degradation in SW1573 cells (Dmax and DC50). The class given is cell-based. A digest of the protocol: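 SW1573 cells were treated with compound overnight (18-20 h; final DMSO 0.1%), then fixed in 4% PFA, permeabilized with Triton X-100 and blocked. BRM was detected by in-cell Western using 800 nm anti-rabbit and 680 nm anti-mouse secondaries, and Dmax and DC50 were derived from the LI-COR Odyssey signal.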

[1] abbreviates: BRM degradation, SW1573 cells, read-out: DC50.
[2] abbreviates: BRM degradation, SW1573 cells, tested at the top concentration of between 0.3 and 10 μM, read-out: Dmax (%) (% degraded).

For the compound `Cc1cnsc1-c1ccc([C@H](C)NC(=O)[C@@H]2C[C@@H](O)CN2C(=O)[C@H](c2cc(OCCN3CCN(CCOc4cc(N5C6CCC5CN(c5cc(-c7ccccc7O)nnc5N)C6)ccn4)CC3)no2)C(C)C)cc1` [compound 265, (2S,4R)-1-((2S)-2-(3-(2-(4-(2-((4-(3-(3-amino-6-(2-hydroxyphenyl)pyridazin-4-yl)-3,8-diazabicyclo[3.2.1]octan-8-yl)pyridin-2-yl)oxy)ethyl)piperazin-1-yl)ethoxy)isoxazol-5-yl)-3-methylbutanoyl)-4-hydroxy-N-((S)-1-(4-(4-methylisothiazol-5-yl)phenyl)ethyl)pyrrolidine-2-carboxamide], under setting [1], the DC50 is greater than 30 nM. On the same count and under the same terms, to `Cc1ncsc1-c1ccc([C@H](COCC(C)C)NC(=O)[C@@H]2C[C@@H](O)CN2C(=O)[C@H](c2cc(OCCN3CCN(CCOc4cc(N5C6CCC5CN(c5cc(-c7ccccc7O)nnc5N)C6)ccn4)CC3)no2)C(C)C)cc1` [compound 291, (2S,4R)-1-((2S)-2-(3-(2-(4-(2-((4-(3-(3-amino-6-(2-hydroxyphenyl)pyridazin-4-yl)-3,8-diazabicyclo[3.2.1]octan-8-yl)pyridin-2-yl)oxy)ethyl)piperazin-1-yl)ethoxy)isoxazol-5-yl)-3-methylbutanoyl)-4-hydroxy-N-((R)-2-isobutoxy-1-(4-(4-methylthiazol-5-yl)phenyl)ethyl)pyrrolidine-2-carboxamide] belongs greater than 30 nM. For the compound `Cc1ncsc1-c1ccc([C@@H](C)NC(=O)[C@@H]2C[C@@H](O)CN2C(=O)[C@@H](c2cc(OCCN3CCC(O[C@H]4C[C@H](Oc5cc(N6C7CCC6CN(c6cc(-c8ccccc8O)nnc6N)C7)ccn5)C4)CC3)no2)C(C)C)nn1` [compound 443, (2S,4R)-1-((2R)-2-(3-(2-(4-((1r,3R)-3-((4-(3-(3-amino-6-(2-hydroxyphenyl)pyridazin-4-yl)-3,8-diazabicyclo[3.2.1]octan-8-yl)pyridin-2-yl)oxy)cyclobutoxy)piperidin-1-yl)ethoxy)isoxazol-5-yl)-3-methylbutanoyl)-4-hydroxy-N-((R)-1-(6-(4-methylthiazol-5-yl)pyridazin-3-yl)ethyl)pyrrolidine-2-carboxamide], the half-maximal degradation concentration (DC50) (degradation of BRM, read-out: BRM DC50) is greater than 30 nM. As for `Cc1ncsc1-c1ccc([C@H](C)NC(=O)[C@@H]2C[C@@H](O)CN2C(=O)[C@@H](c2cc(OCCC3CCN(C(=O)[C@H]4C[C@@H](CN5CCC([C@@H](C)n6cc(-c7cc(-c8ccccc8O)nnc7N)cn6)CC5)C4)CC3)no2)C(C)C)cc1` [compound 452, (2S,4R)-1-((R)-2-(3-(2-(1-((1S,3S)-3-((4-((R)-1-(4-(3-amino-6-(2-hydroxyphenyl)pyridazin-4-yl)-1H-pyrazol-1-yl)ethyl)piperidin-1-yl)methyl)cyclobutane-1-carbonyl)piperidin-4-yl)ethoxy)isoxazol-5-yl)-3-methylbutanoyl)-4-hydroxy-N-((S)-1-(4-(4-methylthiazol-5-yl)phenyl)ethyl)pyrrolidine-2-carboxamide], the greatest degradation seen (Dmax) (SW1573, % degraded, when tested at the top concentration of between 0.3 and 10 μM, read-out: BRM Dmax (%)) was greater than 75%. Also, the 50% degradation concentration (DC50) (target protein degradation, read-out: BRM DC50) is 10 to 30 nM. Consider `Cc1nccn1-c1ccc([C@H](C)NC(=O)[C@@H]2C[C@@H](O)CN2C(=O)[C@H](c2cc(N3CCN(C[C@H]4C[C@H](Oc5cc(N6C7CCC6CN(c6cc(-c8ccccc8O)nnc6N)C7)ccn5)C4)CC3)no2)C(C)C)cc1` [compound 575, (2S,4R)-1-((2S)-2-(3-(4-(((1r,3S)-3-((4-(3-(3-amino-6-(2-hydroxyphenyl)pyridazin-4-yl)-3,8-diazabicyclo[3.2.1]octan-8-yl)pyridin-2-yl)oxy)cyclobutyl)methyl)piperazin-1-yl)isoxazol-5-yl)-3-methylbutanoyl)-4-hydroxy-N-((S)-1-(4-(2-methyl-1H-imidazol-1-yl)phenyl)ethyl)pyrrolidine-2-carboxamide], for which, under “BRM degradation, SW1573 cells, Table 2D, read-out: **Dmax (%) (% degraded)”, the greatest degradation seen (Dmax) fell in the range of 50 to 75%. For the same compound, under “BRM degradation, SW1573 cells, Table 2D, read-out: *DC50”, the DC50 was 10 to 30 nM. Turning to `Cc1ncsc1-c1ccc([C@H](CO)NC(=O)[C@@H]2C[C@@H](O)CN2C(=O)[C@@H](c2cc(OCCN3CCC(O[C@H]4C[C@H](Oc5cc(N6C7CCC6CN(c6cc(-c8ccccc8O)nnc6N)C7)ccn5)C4)CC3)no2)C(C)C)cc1` [compound 199, (2S,4R)-1-((2R)-2-(3-(2-(4-((1r,3R)-3-((4-(3-(3-amino-6-(2-hydroxyphenyl)pyridazin-4-yl)-3,8-diazabicyclo[3.2.1]octan-8-yl)pyridin-2-yl)oxy)cyclobutoxy)piperidin-1-yl)ethoxy)isoxazol-5-yl)-3-methylbutanoyl)-4-hydroxy-N-((R)-2-hydroxy-1-(4-(4-methylthiazol-5-yl)phenyl)ethyl)pyrrolidine-2-carboxamide], under setting [1], the DC50 is less than 2.5 nM. Besides, the Dmax under setting [2] was greater than 75%. Consider `Cc1ncsc1-c1ccc([C@@H](CCC#N)NC(=O)[C@@H]2C[C@@H](O)CN2C(=O)[C@@H](c2cc(N3CCC(CN4CCC(O[C@H]5C[C@H](Oc6cc(N7C8CCC7CN(c7cc(-c9ccccc9O)nnc7N)C8)ccn6)C5)CC4)CC3)no2)C(C)C)cc1` [compound 673, (2S,4R)-1-((2R)-2-(3-(4-((4-((1r,3r)-3-((4-(3-(3-amino-6-(2-hydroxyphenyl)pyridazin-4-yl)-3,8-diazabicyclo[3.2.1]octan-8-yl)pyridin-2-yl)oxy)cyclobutoxy)piperidin-1-yl)methyl)piperidin-1-yl)isoxazol-5-yl)-3-methylbutanoyl)-N-((R)-3-cyano-1-(4-(4-methylthiazol-5-yl)phenyl)propyl)-4-hydroxypyrrolidine-2-carboxamide], for which the half-maximal degradation concentration (DC50) under setting [1] lay in the range of 10 to 30 nM. Further, the maximal degradation (Dmax) (BRM degradation, SW1573 cells, read-out: Dmax (% degraded)) lay in the range of 50 to 75%. Turning to `Cc1ncsc1-c1ccc([C@H](C)NC(=O)[C@@H]2C[C@@H](O)CN2C(=O)[C@H](c2cc(OCCCC#Cc3ccc(O[C@H]4C[C@H](Oc5cc(N6C7CCC6CN(c6cc(-c8ccccc8O)nnc6N)C7)ccn5)C4)cn3)no2)C(C)C)cc1` [compound 249, (2S,4R)-1-((2S)-2-(3-((5-(5-((1r,3r)-3-((4-(3-(3-amino-6-(2-hydroxyphenyl)pyridazin-4-yl)-3,8-diazabicyclo[3.2.1]octan-8-yl)pyridin-2-yl)oxy)cyclobutoxy)pyridin-2-yl)pent-4-yn-1-yl)oxy)isoxazol-5-yl)-3-methylbutanoyl)-4-hydroxy-N-((S)-1-(4-(4-methylthiazol-5-yl)phenyl)ethyl)pyrrolidine-2-carboxamide], the 50% degradation concentration (DC50) under setting [1] was greater than 30 nM. Under setting [2], the Dmax was greater than 75%. The matching figures for `Cc1ncsc1-c1ccc([C@@H](NC(=O)[C@@H]2C[C@@H](O)CN2C(=O)[C@@H](c2cc(OCCN3CCN(CCOc4cc(N5C6CCC5CN(c5cc(-c7ccccc7O)nnc5N)C6)ccn4)CC3)no2)C(C)C)C(=O)N(C)c2ccccc2)cc1` [compound 259, (2S,4R)-1-((2R)-2-(3-(2-(4-(2-((4-(3-(3-amino-6-(2-hydroxyphenyl)pyridazin-4-yl)-3,8-diazabicyclo[3.2.1]octan-8-yl)pyridin-2-yl)oxy)ethyl)piperazin-1-yl)ethoxy)isoxazol-5-yl)-3-methylbutanoyl)-4-hydroxy-N-((R)-2-(methyl(phenyl)amino)-1-(4-(4-methylthiazol-5-yl)phenyl)-2-oxoethyl)pyrrolidine-2-carboxamide]: less than 2.5 nM and greater than 75%.
